From patent publication US7160917B2, “Spirobenzofuran lactams and their derivatives, processes for their preparation and use thereof” (Sanofi-Aventis Deutschland GmbH, priority 2002, dated 2007)

Biological target: plasminogen activator inhibitor 1 (PAI-1) (Homo sapiens, UniProt P05121)
Experiment: Bioassay for PAI-1 inhibitors (tPA amidolysis of chromogenic substrate in presence of PAI-1)
Assay type: biochemical
Conditions: inhibition of PAI-1 measured via tPA activity; 4.5 nM PAI-1, 7.5 nM tPA, 1 mM substrate H-D-Ile-Pro-Arg-pNA, TRIS buffer pH 8.4, OD 405 nm, 37° C. 60 minutes
Protocol: For the detection of the inhibitors of PAI-1, a test is run in which the activation of a specific substrate by tPA is measured in the presence of a defined amount of PAI-1 and the substance in each case to be investigated. tPA is inhibited by PAI-1. An inhibition of PAI-1 results in an increased tPA activity. The enzymatic activity of tPA is measured colorimetrically by employing a chromogenic substrate which becomes colored after amidolysis.
Reaction: The inhibition of the enzymatic activity of tPA by PAI-1 is measured by means of the amidolysis of the chromogenic substrate H-D-IIe-Pro-Arg-pNA (Chromogenix; pNA=para-nitroaniline) as the optical density (OD) at a wavelength of 405 nm.
Extracts or pure substances, for example of the spirobenzofuran lactam derivatives prepared or characterized in examples 4–10, which are present dissolved in DMSO, were diluted in a suitable manner using TRIS buffer pH 8.4.
5 μl of test substance and 5 μl of PAI-1 are preincubated at room temperature for 30 minutes. 10 μl of tPA solution and 20 μl of substrate solution are then added.
The final concentrations in the sample are 50 μM test substance, 4.5 nM PAI-1, 7.5 nM tPA and 1 mM substrate in TRIS buffer pH 8.4. Immediately after the addition of the substrate, the initial absorption is measured at 405 nm. After incubation at 37° C. for 60 minutes, the absorption is measured again.
In each case, blank samples (buffer instead of tPA), positive controls=B (buffer instead of test substances) and tPA controls=A (buffer instead of PAI-1) are co-tested.
After correction by means of the blank samples, the inhibition is determined according to the following equation: […]
The results of the assay are shown as IC50 values in Table 1.

Chain of plasminogen activator inhibitor 1 (PAI-1) (P05121 24-402): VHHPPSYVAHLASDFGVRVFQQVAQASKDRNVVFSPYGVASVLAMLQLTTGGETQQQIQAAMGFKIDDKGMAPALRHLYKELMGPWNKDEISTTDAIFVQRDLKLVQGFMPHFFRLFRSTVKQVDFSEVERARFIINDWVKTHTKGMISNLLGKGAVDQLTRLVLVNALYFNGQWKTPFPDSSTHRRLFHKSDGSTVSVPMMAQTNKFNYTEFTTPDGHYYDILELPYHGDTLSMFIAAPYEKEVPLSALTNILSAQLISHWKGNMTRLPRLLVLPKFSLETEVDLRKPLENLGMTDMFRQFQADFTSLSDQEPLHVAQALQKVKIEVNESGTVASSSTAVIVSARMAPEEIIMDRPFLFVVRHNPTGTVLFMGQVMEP

SMILES	IC50 [µM]
CC1CCC2C(C)(C)C(O)CCC2(C)C12Cc1c(O)cc3c(c1O2)CN(C(Cc1ccccc1)C(=O)O)C3=O (stereo not drawn) [Compound of the formula (II)]	41
CCC(C)C(C(=O)O)N1Cc2c(cc(O)c3c2OC2(C3)C(C)CCC3C(C)(C)C(O)CCC32C)C1=O (stereo not drawn) [Compound of the formula (III)]	66
CC(C)CC(C(=O)O)N1Cc2c(cc(O)c3c2OC2(C3)C(C)CCC3C(C)(C)C(O)CCC32C)C1=O (stereo not drawn) [Compound of the formula (IV)]	35
